Data from patent publication US10011614B2, “Bis-β-carboline compound and preparation method, pharmaceutical composition and use thereof” (XINJIANG HUASHIDAN PHARMACEUTICAL RESEARCH CO., LTD., priority 2012, dated 2018).

Legend:
Assay type in all cases: cell-based
[1] = tested on: BGC (human gastric cancer cells); test: Antitumor screening in vitro, MTT assay, BGC; details: 48 hours
Procedure: (§1) Cell lines: BGC (human gastric cancer cells), A375 (human malignant melanoma cells), 769-P (human renal carcinoma cells), KB (human oral epidermoid carcinoma cells), SK-OV-3 (human ovarian cancer cells), etc, were selected, and the test method was the MTT assay. Cisplatin was as a positive control.
(§2) Specific methods are as follows: cells growing well in the logarithmic phase were seeded in 96-well plates at a concentration of 1×10^4 cells/ml, and then were placed in 37° C., containing 5% CO2 incubator for 24 hours. After discarding the old solution, changed fresh medium, and added sterilization treatment compound, and then cultured for 48 hours. After discarding the culture medium, 20 ul RPMI1640 medium containing 5 mg/ml MTT were added to each well in 96-well plates and cells were cultured for 4 hours. After the supernatant was carefully removed, 100 μl DMSO was added to each well, and the plates were Oscillated about 10 min to dissolve the precipitate, followed by detecting OD value in wavelength 490 nm by the microplate reader. Cell survival rate for each sample concentrations was determined by the following formula: The mean survival rate %=the average OD value of sample group/the average OD value of control group×100%
(§3) Morphological studies by mapping with the logarithm of the drug concentration and the mean survival rate % of each sample to obtain IC50 values for each sample.

[2] = tested on: 769-P (human renal carcinoma cells); test: Antitumor screening in vitro, MTT assay, 769-P; details: 48 hours, 769-P cells
Procedure: as §1, §2, §3

[3] = tested on: KB (human oral epidermoid carcinoma cells); test: Antitumor screening in vitro, MTT assay, KB; details: 48 hours
Procedure: as §1, §2, §3

[4] = tested on: SK-OV-3 (human ovarian cancer cells); test: Antitumor screening in vitro, MTT assay, SK-OV-3; details: 48 hours, SK-OV-3 cells
Procedure: as §1, §2, §3

[5] = tested on: A375 (human malignant melanoma cells); test: Antitumor screening in vitro, MTT assay, A375
Procedure: as §1, §2, §3

| Compound | IC50 [1] [µM] | IC50 [2] [µM] | IC50 [3] [µM] | IC50 [4] [µM] | IC50 ([5]; 48 hours) [µM] | IC50 ([1]; Homo sapiens) [µM] | IC50 ([2]; Homo sapiens) [µM] | IC50 ([3]; Homo sapiens) [µM] | IC50 ([4]; Homo sapiens) [µM] | IC50 ([5]; Homo sapiens, A-375, 48 hours) [µM] |
| --- | --- | --- | --- | --- | --- | --- | --- | --- | --- | --- |
| N.N.[Cl][Pt][Cl] [Cisplatin, reference compound] | 17.3 | 11.6 | 13.1 | 4.2 | 39.2 | – | – | – | – | – |
| c1ccc2c(c1)c1ccncc1n2CCCCCn1c2ccccc2c2ccncc21 [Compound 2, 1,5-bis(β-carboline-9-yl)pentane] | – | – | – | – | – | 23.5 | 15.3 | > 300 | > 300 | 10.2 |
| c1ccc2c(c1)c1ccncc1n2CCCCCCn1c2ccccc2c2ccncc21 [Compound 3, 1,6-bis(β-carboline-9-yl) hexane] | – | – | – | – | – | 13.8 | 12.8 | 13.9 | 38.9 | 10.8 |
| c1ccc2c(c1)c1ccncc1n2CCCCCCCn1c2ccccc2c2ccncc21 [Compound 4, 1,7-bis(11-carboline-9-yl) heptane] | > 300 | 53 | > 300 | 212 | 286 | – | – | – | – | – |
| COc1ccc2c3ccnc(C)c3n(CCCCCCCC(C)n3c4cc(OC)ccc4c4ccnc(C)c43)c2c1 (stereo not drawn) [Compound 18, 1,8-bis(7-methoxy-1-methyl-β-carboline-9-yl) nonane] | – | – | – | – | – | 104 | 114 | 38.6 | 10.2 | 113 |
| COc1cc(-c2nccc3c4ccccc4n(CCCCCCCn4c5ccccc5c5ccnc(-c6cc(OC)c(OC)c(OC)c6)c54)c23)cc(OC)c1OC [Compound 20, 1,7-bis[1-(3,4,5-trimethoxy)phenyl-β-carboline-9-yl) heptane] | > 300 | 3.3 | 7.6 | > 300 | 4 | – | – | – | – | – |
| CCCCOc1ccc2c3ccnc(C)c3n(CCCCCCn3c4cc(OCCCC)ccc4c4ccnc(C)c43)c2c1 [Compound 24, 1,6-bis(7-n-butoxy-1-methyl-β-carboline-9-yl) hexane] | – | – | – | – | – | > 300 | 56 | > 300 | > 300 | > 300 |
| Cc1nccc2c3ccc(OC(C)C)cc3n(CCCCCCn3c4cc(OC(C)C)ccc4c4ccnc(C)c43)c12 [Compound 25, 1,6-bis(7-isopropoxy-1-methyl-β-carboline-9-yl) hexane] | – | – | – | – | – | 194 | 95.4 | 19.8 | 17.1 | 18.5 |
| CCOC(=O)c1cc2c3ccccc3n(CCCCCCCCCn3c4ccccc4c4cc(C(=O)OCC)nc(-c5cc(OC)c(OC)c(OC)c5)c43)c2c(-c2cc(OC)c(OC)c(OC)c2)n1 [Compound 28, 1,9-bis[1-(3,4.5-trimethoxy)phenyl-β-carboline-3-ethyoxylcarbonyl-9-yl]nonane] | > 300 | 44.6 | > 300 | > 300 | 218 | – | – | – | – | – |
| CCOC(=O)c1cc2c3ccccc3n(CCCCCn3c4ccccc4c4cc(C(=O)OCC)nc(-c5cccnc5)c43)c2c(-c2cccnc2)n1 [Compound 29, 1,5-bis[3-ethyoxylcarbonyl-1-(pyridine-3-yl)-β-carboline-9-yl]pentane] | 24.1 | 132 | 15.7 | > 300 | 13 | – | – | – | – | – |
| CCOC(=O)c1cc2c3ccccc3n(CCCCCCn3c4ccccc4c4cc(C(=O)OCC)nc(-c5cccnc5)c43)c2c(-c2cccnc2)n1 [Compound 30, 1,6-bis[3-ethyoxylcarbonyl-1-(pyridine-3-yl)-β-carboline-9-yl]hexane] | > 300 | > 300 | > 300 | 68.3 | > 300 | – | – | – | – | – |
| c1cncc(-c2nccc3c4ccccc4n(CCCCCCn4c5ccccc5c5ccnc(-c6cccnc6)c54)c23)c1 [Compound 32, 1,6-bis[1-(pyridine-3-yl)-β-carboline-9-yl) hexane] | – | – | – | – | – | 14.1 | > 300 | 13.3 | 14.9 | 5.3 |
| Clc1ccccc1-c1nccc2c3ccccc3n(CCCCCCn3c4ccccc4c4ccnc(-c5ccccc5Cl)c43)c12 [Compound 35] | > 300 | > 300 | > 300 | > 300 | 23.2 | – | – | – | – | – |
